Experimental data as given in US9061006B2, “Compositions and methods for diagnosing and treating phenylketonuria (PKU)” (Ramot at Tel-Aviv University Ltd., priority 2011, dated 2015).

What was measured:
Assay type in all cases: cell-based
[1] = tested on: PC12 cells; assay: MTT cell viability assay, PC12 cell line; settings: negative control amino acid, increasing amount
Method: (§1) Cell cytotoxicity experiments—CHO cells (2×10^5 cells/mL) were cultured in 96-well micro plates (100 μL/well) and incubated overnight at 37° C. 100 μL of phenylalanine was added to each well dissolved in Dulbecco's Modified Eagle Medium (DMEM) (Beit Haemek, Israel) at various concentrations. Each experiment was repeated 3 times. Following incubation for 6 hours at 37° C., cell viability was evaluated using the 3-(4,5-dimethylthiazolyl-2)-2,5-diphenyltetrazolium bromide (MTT) assay. Briefly, 20 μL of 5 mg/mL MTT dissolved in PBS was added to each well. After 4 hours incubation at 37° C., 100 μL of extraction buffer [20% SDS dissolved in a solution of 50% dimethylformamide and 50% DDW (pH 4.7)] was added to each well, and the plates were incubated again overnight at 37° C. Finally, color intensity was measured using an ELISA reader at 570 nm.
(§2) The present inventors next examined whether, like many amyloid structures, phenylalanine assemblies have a cytotoxic effect. This was examined in a physiological range of concentration, similar to that detected in untreated PKU patients. We performed in vitro cellular viability experiments. To this end, elevated concentrations of phenylalanine ranging from 0.1 μM to 15 mM were added to […] cultured PC12 cells. […] In the presence of 1.8 mM phenylalanine, PC12 cell viability was decreased to approximately 80%. […] In the presence of 6 mM phenylalanine, CHO cell viability was decreased to 84%. Moreover, the viability of the cells in the presence of phenylalanine at concentration of 12 mM was lower than 40% (FIG. 2A). The present assay is performed at much shorter time scales than those of disease progression and this may account for the slightly elevated concentrations than those typically found at PKU patients. It is also possible that such high concentrations of phenylalanine occur pathologically in PKU patients due to transient local high concentration in the brain. […] The present inventors further assessed the influence of the phenylalanine fibrils on the CHO cells using scanning electron microscope.

[2] = MTT cell viability assay, CHO cell line; settings: Chinese hamster, CHO cells
Method: as §1

[3] = Immuno precipitation and cell cytotoxicity experiments (MTT); settings: Chinese hamster, prior to IP, CHO cells
Method: as §1
Immuno precipitation and cell cytotoxicity experiments—Phenylalanine solution at concentration of 7.5, 1.87, 0.46, 0.11 were either incubated with CHO cell or immuno-precipitate and then the solutions, without the fibrils, were incubated with CHO cell according to cell cytotoxicity experiments detailed above. Samples were immuno-precipitated with anti-phenylalanine fibrils antibodies (1:10) over night at 4° C. (previously purified on protein A column, in PBS+2% BSA).

[4] = MTT cell viability assay, PC12 cell line; settings: rat, PC12 cells
Method: as §1, §2

[5] = tested on: CHO cells; assay: Scanning electron microscopy imaging of CHO cells; settings: incubation with phenylalanine fibrils 6 hour, SEM
Method: Scanning electron microscopy imaging of CHO cells—CHO cell were cultured on glass cover slips located in 24-well micro plates, then incubated with various concentration of phenylalanine fibrils for 6 hour at 37° C., as described in the cell cytotoxicity experiments section. The cell were fixated on the glass cover slip with 2.5% glutaraldehyde, then dehydrated and coated with gold. Scanning electron microscopy images were made using a JSM JEOL 840A SEM operating at 5 kV.

CHO cell morphology [5] | CHO cell density ([5]; compared to untreated cells) | Compound | toxic effect (cytotoxicity) [1] | viability at 6 h, 6 mM ([2]; 6 mM phenylalanine) | viability at 6 h, 12 mM ([2]; 12 mM phenylalanine) | viability at 6 h, 1.87 mM ([3]; 1.87 mM phenylalanine assemblies) | viability at 6 h, 7.5 mM ([3]; 7.5 mM phenylalanine assemblies) | viability at 1.8 mM ([4]; 1.8 mM phenylalanine) | viability at 7.5 mM ([4]; 7.5 mM phenylalanine)
– | – | C[C@H](N)C(=O)O [Alanine, reference compound] | did not demonstrate a toxic effect | – | – | – | – | – | –
smaller and rounded | very low density | N[C@@H](Cc1ccccc1)C(=O)O [phenylalanine] | – | 84% | < 40% | 56% | 44% | ~80% | ~65%
